For one assay, the system named is Jurkat cells. Kind of assay: TNF-α/cycloheximide induced apoptosis in Jurkat cells, Annexin V. Format: cell-based. The following applies: Human Jurkat cell line/Annexin V, n = 4, read-out: IC50, inhibition of apoptosis. The method, then:
Jurkat cells were obtained from LGC Standards (Teddington, UK) and were grown in RPMI 1640, 10% FCS, 2 mM L-glutamine, 100 U/ml penicillin and 0.1 mg/ml streptomycin (all from Sigma Aldrich Ltd., Poole, UK) at 37°C in 5% CO2/95% humidity. Receptor- or stress-mediated apoptosis (2 × 10^5 cells/ml) was induced by addition of either anti-Fas antibody CH-11 (10 ng/ml, Millipore UK Ltd., Watford, UK), TNF-α (20 ng/ml, R&D Systems, Abingdon, UK) with cycloheximide (112 ng/ml, Sigma Aldrich Ltd., Poole, UK) or staurosporine (350 ng/ml, Sigma Aldrich Ltd., Poole, UK). VX-166 was diluted into DMSO (10 mM), further diluted in media and added at a range of concentrations. Cells were then incubated for 18 hours. Apoptotic cells were then labelled with Cy5-conjugated Annexin-V (BD Biosciences, Oxford, UK) and detected using a FMAT™ 8100 Fluorimetric Microassay Technology Reader (Applied Biosystems, Warrington, UK). For the experiments using anti-Fas antibody, apoptosis was additionally measured using a Cell Death Detection ELISA kit (Roche Diagnostics Ltd., Lewes, UK) following the manufacturer's instructions.

The subject of the next assay is thymocytes. Kind of assay: CLP rat, thymocyte apoptosis by flow cytometry. The following applies: 20 hours, 25 mg/ml pump, n = 10. Format: in vivo. The method, then:
CLP studies were performed in accordance with the National Institutes of Health guidelines for the use of experimental animals and were approved by the Institutional Animal Care and Use Committee of the Feinstein Institute for Medical Research. Adult male Sprague-Dawley rats (weighing 275 to 325 g, Charles River Laboratories, Wilmington, MA, USA) were fasted overnight then anaesthetised with isoflurane. The caecum was exposed via a 2 cm midline incision. It was ligated just distal to the ileocaecal valve, then punctured twice with an 18-gauge needle and gently squeezed to release a small amount of faecal material to ensure patency of the perforation sites before the abdominal incision was closed. Sham-operated rats underwent the same procedure with the exception that the caecum was neither ligated nor punctured. Animals received subcutaneous fluids (30 ml/kg saline) immediately after the procedure. No antibiotics were administered. In the 7 and 10 day survival studies animals were re-anaesthetised 20 hours after CLP, the perforated caecum was removed and the abdominal cavity washed twice with 40 ml of warm, sterilised saline. The abdominal cavity was closed, anaesthetics withdrawn and rats returned to their cages where they were allowed free access to food and water. In the 20 hour endpoint study the caecum was not removed. […]
Rat PBMC were isolated from heparinised blood by Ficoll Paque (GE Healthcare Bio-Sciences Corp., Piscataway, NJ, USA) density gradient centrifugation and washed three times with PBS (Invitrogen, Carlsbad, CA, USA). […] Cells were then washed twice in PBS, counted and reconstituted in Ca^2+-rich Annexin-V binding buffer (BD Biosciences, San Jose, CA, USA) at a concentration of 1 × 10^7 cells/ml. […] Cells were then analysed by flow cytometry with the FACS-Calibur (BD Biosciences, San Jose, CA, USA) and percentages of viable (Annexin-V^-/PI^-), early apoptotic (Annexin-V^+/PI^-), late apoptotic (Annexin-V^+/PI^+) and necrotic (Annexin-V^-/PI^+) cells were determined.
Background: Flow cytometry measures light scatter and fluorescence of single cells or particles in a stream.

The source of these data is article PMC2784364, “VX-166: a novel potent small molecule caspase inhibitor as a potential therapy for sepsis” (Critical Care, 2009).

SMILES strings stand for the structures. “Also recorded” adds a separate entry of the source.

One may read the IC50 as the concentration needed to halve the response being measured.

For `CCC(C(=O)NC(CC(=O)O)C(=O)COc1c(F)c(F)cc(F)c1F)n1cccc(NC(=O)OC)c1=O` (stereo not shown) [VX-166], the half-maximal inhibitory concentration (IC50) in the assay with Jurkat cells turned out to be 120 ± 50 nM. In the assay with thymocytes, the “level of necrotic thymocytes between groups” value is “remained unchanged”; the “percentage of early apoptotic thymocytes vs vehicle CLP group” value is “significantly inhibited thymic atrophy and lymphocyte apoptosis; also recorded: reduced the percentage of early apoptotic thymocytes”; the “percentage of viable thymocytes vs vehicle CLP group” value is reported as “significantly increased the percentage of viable cells”.
